Columns and labels:
[1] = Stability of compounds in mouse hepatocytes; assay type: in vitro ADME; conditions: cryopreserved mouse hepatocytes in suspension, 37° C., 0-240 min
Description: (§1) Stability in hepatocytes for select compounds disclosed in the application was evaluated in two species (mouse and human) according to the following procedure. Compounds and positive control samples were dissolved in 100% DMSO at 5 mM. Cryopreserved hepatocytes were thawed and resuspended in Hepatocyte Basal Medium (HBM-Lonza CC-3199) supplemented with CC-4182 (complete hepatocyte culture medium). Test compounds were diluted into cell suspension (1 million cells/ml) from the stock solutions to have a test compound concentration of 5 μM (0.1% DMSO). Incubation was performed in 24-well plates, at 37° C. in a DUBNOFF water bath, under low shaking. Each compound was tested at 6 time points, in duplicates (0, 15, 30, 60, 120, and 240 min). At each time point, an aliquot of 120 μl was taken and transferred to a 96-well deep plate. The reaction was stopped with the addition of one volume of 100% acetonitrile plus 0.1% formic acid and the appropriate internal standard. Samples then were centrifuged at 1100×g for 30 min at +4° C. and supernatants were transferred to a new 96-deepwell plate. Samples were evaporated under N2 and reconstituted in H2O/ACN 0.1% formic Acid (98:2). Analysis was performed without a calibration curve (Acquity UPLC-Waters; Sciex API4000). Time 0 was obtained adding acetonitrile before addition of the test compound. Stability was determined based on analysis of disappearance of the compounds as a function of incubation time. Quantification of test compounds was measured as a peak area relative to an internal standard. The elimination constant, k, is calculated by plotting mean disappearance values on a semi-logarithmic scale and fitting with a best fit linear regression. The half-life (t1/2) expressed in hours was derived using Equation 1:
(§2) t1/2=ln 2/(−k). Equation 1: […]

[2] = Stability of compounds in human hepatocytes; assay type: in vitro ADME; conditions: cryopreserved human hepatocytes in suspension, 37° C., 0-240 min
Description: as §1, §2

[3] = Stability in human plasma; assay type: in vitro ADME; conditions: 37° C., up to 60 min
Description: The stability of selected compounds in human plasma was evaluated according to the following protocol. Compounds and positive control samples were dissolved in 100% DMSO at 3 mM. To investigate the stability of the test compounds in plasma, samples were made by diluting test compounds into plasma from the stock solutions to obtain a test compound concentration of 3 μM (0.1% DMSO). Before addition of a test compound, 990 μl of plasma were preincubated at 37° C. for 5 min in eppendorf. After addition of a test compound, 70 μl for each time point were transferred to a 96-deepwell plate, previously warmed at 37° C. in a DUBNOFF water bath. Each compound was tested at five time points, in duplicate (10, 20, 30, 40 and 60 min). At each time point, an aliquot of 50 μl was taken and transferred to a new 96-deepwell plate, and the reaction was stopped with 200 μl of 100% acetonitrile containing 0.1% formic acid and the appropriate internal standard. Then samples were centrifuged at 1100×g for 30 min at +4° C. and supernatants were transferred to a new 96-deepwell plate. Samples were evaporated under N2 and reconstituted in H2O/ACN 0.1% formic Acid (98:2). Analysis was performed without a calibration curve (Acquity UPLC-Waters; SciexAPI4000). Time 0 was obtained by adding acetonitrile before addition of the test compound.
(§3) Stability was determined based on analysis of disappearance of the compounds as a function of incubation time. Quantification of test compounds was measured as a peak area relative to an internal standard. The elimination constant k and half-life (t1/2) were determined as described above in Example 7.

[4] = Stability in human whole blood; assay type: in vitro ADME; conditions: 37° C., up to 60 min
Description: The stability of selected compounds in human whole blood was evaluated according to the following protocol. Compounds and positive control samples were dissolved in 100% DMSO at 3 mM (stock solution). To investigate the stability of the test compounds in whole blood, a 200 μM working solution (WS) in water has been prepared by adding 66.66 μl of each 3 mM stock solution to 933.34 μl of water (6.66% DMSO content). After pre-incubation of the whole blood at 37° C. for 5 min in an eppendorf, 10.5 μl of each working solution were spiked into 689.5 μl of heated blood. The obtained 3 μM solution in blood (0.1% DMSO content) was quickly stirred and 100 μl for each time point were transferred to an eppendorf. Each compound was tested in duplicate at five time points (10, 20, 30, 40 and 60 min). At each time point, the reaction was stopped by quenching the spiked blood (100 μl) with 400 μl of 100% acetonitrile containing 0.1% formic acid. Then samples were centrifuged at 15600 rpm for 15 min at +4° C. and 200 μl of supernatant were transferred to a 96-deepwell plate. Samples were evaporated under N2 and reconstituted in H2O/ACN 0.1% formic Acid (98/2 v/v) containing the appropriate internal standard. Analysis was performed without a calibration curve by using an Acquity-UPLC (Waters) coupled to a triple quadrupole mass spectrometer (SciexAPI4000). Time point 0 was obtained by adding 3 μL of each 200 μM working solution to 997 μL of the supernatant obtaining after centrifugation (15600 rpm for 15 min at +4° C.) of the blank matrix quenched with acetonitrile containing 0.1% formic acid.
as §3

[5] = system: PANK2−/− IMR32 cells; test: Coenzyme A assay in PANK2 silenced cells (LC-MS quantification of free CoA); assay type: cell-based, human; conditions: Homo sapiens, IMR-32; compound concentration 50 uM; fold increase in CoA levels relative to controls; treated twice, 24 h + 24 h
Description: A human neuroblastoma IMR32 cell line (ATCC) with stably PANK2 silencing was obtained by lentiviral-delivered small hairpin RNA and cultured in MEM (Invitrogen) supplemented with 10% fetal bovine serum, 2 mM glutamine, 1% penicillin-streptomycin, 1 mM sodium pyruvate, 1 mM non-essential amino acids, and 1.5 g/l sodium bicarbonate.
A non-silencing shRNA construct (scrambled shRNA) and an empty vector expressing GFP alone were used as negative controls. The GFP tag subcloned into the lentiviral vectors was used to monitor the transfection efficiency.
Three days after transduction medium was removed and replaced with fresh medium containing […] puromycin. […] The level of PANK2 expression in selected clones was assessed by Western Blot analysis.
To quantify CoA, PANK2−/− IMR32 cells were plated on 12-well culture plates (Corning) at a density of 0.2×10^6 cells per well. […] Controls with medium containing 0.1% DMSO without test compounds were also included in each plate. […] Before LC-MS analysis of CoA levels, cells were harvested, counted, and collected in a 15 ml falcon tube and centrifuged at 200×g for 5 min at 4° C. Supernatant was removed and cell pellet was washed in 10 ml of ice-cold PBS. To further confirm that the numbers of cells in each sample were equivalent, an equal fraction of pellet was collected from each sample and subjected to protein determination analysis. After centrifugation and supernatant removal, the cell pellet was rapidly frozen in Liquid Nitrogen and stored at −80° C. until analysis.
Intracellular CoA levels were calculated considering an intracellular volume of 1 million cells=2 μl.
The 1*10^6 cellular pellet was extracted with 120 μl of aqueous 20% TFA.
100 μL samples of supernatant were dried under N2 at 20° C. in the dark.
Samples were re-dissolved in 100 μl of 10 mM NH4^+ AcO^− buffer pH 5.1+IS (Dextrorphan 50 ng/ml), stirred for 2 min, sonicated in ultrasonic bath for 1 min, then stirred again for 1 min, and injected into LC-MS.
LC-MS/MS was performed using an Agilent HPLC (1100 Series, USA). The LC system was interfaced with an API-4000 Q-Trap triple quadrupole mass spectrometer (AB Sciex, Toronto, Canada) equipped with a TurboIonSpray ionization source operating in positive ion mode. Analyst™ software version 1.6 (AB Sciex, Toronto, Canada) was used for data acquisition and processing. CoA was separated using a Luna C18 column (2.0×50 mm; 5 μm particle size), column at 25° C. and flow rate of 0.2 ml/min. Injection volume was 15 μl. The mobile phases consisted of water containing 10 mM ammonium acetate pH 7 (mobile phase A) and MeCN-2-propanol 9:1 (mobile phase B).
Results are expressed as fold increase in CoA levels relative to controls (using LC-MS quantification of free CoA).

[6] = Diastereoisomer A (upfield shift in 31P NMR), read-out: t1/2 (h) Mouse Hepatocytes Diastereoisomer A (converted)
[7] = Diastereoisomer A (upfield shift in 31P NMR), read-out: t1/2 (h) Human Hepatocytes Diastereoisomer A (converted)
[8] = Diastereoisomer A (upfield shift in 31P NMR), read-out: t1/2 (h) Human Plasma Diastereoisomer A (converted)
[9] = Diastereoisomer A (upfield shift in 31P NMR), read-out: t1/2 (h) Human Whole Blood Diastereoisomer A (converted)
[10] = Diastereoisomer B, read-out: t1/2 (h) Human Whole Blood Diastereoisomer B (converted)

Structure (SMILES) | half-life at 5 μM [1, 6] [h] | half-life at 5 μM [2, 7] [h] | half-life at 3 μM [3, 8] [h] | half-life at 3 μM [4, 9] [h] | half-life at 3 μM [4, 10] [h] | half-life at 5 μM ([1]; Diastereoisomer B, read-out: t1/2 (h) Mouse Hepatocytes Diastereoisomer B) [h] | half-life at 5 μM ([2]; Diastereoisomer B, read-out: t1/2 (h) Human Hepatocytes Diastereoisomer B (converted)) [h] | half-life at 3 μM ([3]; Diastereoisomer B, read-out: t1/2 (h) Human Plasma Diastereoisomer B (converted)) [h] | fold induction at 50 µM [5]
CC(=O)SCCNC(=O)CCNC(=O)[C@@H]1OP(=O)(N[C@@H](C)C(=O)OCCc2ccccc2)OCC1(C)C (stereo partly drawn) [R1001, phenethyl ((4R)-4-((3-((2-(acetylthio)ethyl)amino)-3-oxopropyl)carbamoyl)-5,5-dimethyl-2-oxido-1,3,2-dioxaphosphinan-2-yl)-L-alaninate] |  |  | > 1 |  |  |  |  | 0.36 | 3.5
CC(=O)SCCNC(=O)CCNC(=O)[C@@H]1OP(=O)(OCOC(=O)N[C@@H](CSC(=O)C(C)(C)C)C(=O)O)OCC1(C)C (stereo partly drawn) [R1013, N-(((((4R)-4-((3-((2-(acetylthio)ethyl)amino)-3-oxopropyl)carbamoyl)-5,5-dimethyl-2-oxido-1,3,2-dioxaphosphinan-2-yl)oxy)methoxy)carbonyl)-S-pivaloyl-L-cysteine] |  |  |  | 0.78 | 0.6 |  |  |  | 1

The next lines start with results.

half-life at 5 μM [1, 6] [h] | half-life at 5 μM [2, 7] [h] | half-life at 3 μM [3, 8] [h] | half-life at 3 μM [4, 9] [h] | half-life at 3 μM [4, 10] [h] | half-life at 5 μM ([1]; Diastereoisomer B, read-out: t1/2 (h) Mouse Hepatocytes Diastereoisomer B) [h] | half-life at 5 μM ([2]; Diastereoisomer B, read-out: t1/2 (h) Human Hepatocytes Diastereoisomer B (converted)) [h] | half-life at 3 μM ([3]; Diastereoisomer B, read-out: t1/2 (h) Human Plasma Diastereoisomer B (converted)) [h] | Structure (SMILES) | fold induction at 50 µM [5]
< 0.25 | < 0.25 | 0.72 |  |  |  |  |  | CC(=O)SCCNC(=O)CCNC(=O)[C@@H]1O[P@@](=O)(OCOC(=O)C(C)(C)C)OCC1(C)C [R1002, (((2S,4R)-4-((3-((2-(acetylthio)ethyl)amino)-3-oxopropyl)carbamoyl)-5,5-dimethyl-2-oxido-1,3,2-dioxaphosphinan-2-yl)oxy)methyl pivalate] | 
 |  |  | 0.41 | 0.25 |  |  |  | CC(=O)SCCNC(=O)CCNC(=O)[C@@H]1O[P@](=O)(OCOC(=O)NCCOC(=O)C(C)(C)C)OCC1(C)C [R1031, 2-((((((2R,4R)-4-((3-((2-(acetylthio)ethyl)amino)-3-oxopropyl)carbamoyl)-5,5-dimethyl-2-oxido-1,3,2-dioxaphosphinan-2-yl)oxy)methoxy)carbonyl)amino)ethyl pivalate] | 23.2
< 0.25 | 0.29 |  | 0.5 | 0.23 | < 0.25 | < 0.25 |  | CC(=O)SCCNC(=O)CCNC(=O)[C@@H]1OP(=O)(OCOC(=O)NCCOC(=O)C(C)(C)C)OCC1(C)C (stereo partly drawn) [R1008, 2-((((((4R)-4-((3-((2-(acetylthio)ethyl)amino)-3-oxopropyl)carbamoyl)-5,5-dimethyl-2-oxido-1,3,2-dioxaphosphinan-2-yl)oxy)methoxy)carbonyl)amino)ethyl pivalate] | 41.2
